Data published in US10328130B2, “Modified hyaluronidases and uses in treating hyaluronan-associated diseases and conditions” (Halozyme, Inc., priority 2008, dated 2019).
Like-named read-outs stand apart in the source and are kept apart here.

Tests used:
[1] = test system: PC3 prostate cancer xenograft tumor
Description: Tumor growth was monitored using VisualSonics Imaging Micro-ultrasound system. […] A control group of mice (G2) received 10 mg/kg docetaxel Q7D×2 intravenously on days 0 and 7. Another control group of mice received 30 mg/kg docetaxel Q7D×2 intravenously on days 0 and 7. […] A final control group that received only API buffer also was included in the study (G1). […] The Median Survival Time (MST) (in days) was calculated by median time to 1500 mm^3 tumor volume based on individual animals in each group. The % T/C is calculated by % T/C=(T/C)×100, where T is the median survival time to 1500 mm^3 tumor volume in the treated group and C is the median survival time to 1500 mm^3 tumor volume in the API buffer control group. By National Cancer Institute (NCI) criteria, a product with a % T/C over 125% is considered active. The Increase in Life Span (ILS) is a measure of anti-tumor activity calculated as [(T−C)/C]×100, where (T−C) is the difference in the median day to 1500 mm^3 tumor volume between the treated (T) and control (C) groups.
A control group of mice were intravenously administered 6 mg/kg Doxil® liposomal doxorubicin on days 0, 7 and 14. […] A final control group that received only API buffer also was include in the study.

[2] = test system: PC-3M-luc-C6 cells; assay: PC-3M-luc-C6 bone metastasis model: survival and bioluminescent imaging; type: in vivo, mouse; conditions: for % survival: day 49
Description: Due to the bioluminescence of the PC-3M-luc-C6 cells, in addition to monitoring the survival of the mice, the mice were imaged to visualize the PC-3M-luc-C6 metastases. Briefly, 7-10 week old nu/nu male mice (Charles River Laboratories) were anesthetized and injected with 3×10^6 PC-3M-luc-C6 cells (a bioluminescent human prostate carcinoma cell line) suspended in 50 μL sterile DPBS by intracardial injection on day 0. Mice were injected into the left ventricle of the heart by non-surgical means to increase the potential for metastasis from PC-3M-luc-C6 cells. The intracardiac injection of tumor cells bypasses the lungs and serves as a method to disperse cells into general circulation in order to allow seeding of metastasis in multiple tissues within an animal. A satisfactory injection into the left ventricle was detectable within minutes by bioluminescent imaging (BLI) and was identified by an immediate but transient systemic bioluminescence over the entire animal, as indicated by complete blue signal BLI of mice. An unsuccessful implantation produced a more localized signal generally isolated and sustained over time solely within the thoracic region of the animal. […] Mice with successful intra-cardiac injection of PC-3Mluc-C6 cells on day 0 (n=10−13 mice/Grp) were imaged twice a week for up to four weeks and subsequently followed up for survival till day 49 and beyond that time point.
On day 14, the mice were subjected to one of several treatment regimens. A set of control mice was administered API buffer (10 mM Hepes and 130 mM NaCl, pH 7.0) only on days 14, 16, 18, 21, 23, 25, 28, 30, and 32.
The in vivo bioluminescent signal from the jaw region of mice corresponds to micrometastases in the dental pulp, mandible or cervical lymph nodes. Lower limb in vivo signals corresponded to metastatic lesions identified in the tibia or femur leg bones. The thoracic signals that are observed in vivo are associated with residual tumor cells that had seeded into the heart, lung or the pleural surface of the chest cavity. Mice with images indicating a successful systemic injection on day 0 and showing in vivo evidence of metastasis by day 29 were included in the analysis of the treatment groups.

[3] = PEGylated rHuPH20 10,000 U/mouse and/or docetaxel 10 mg/kg IV
[4] = PEGylated rHuPH20 10,000 U/mouse and/or Taxotere 10 mg/kg (admixed) IV
[5] = Taxotere 30 mg/kg IV days 14 and 21

SMILES: CC(=O)O[C@@]12CO[C@@H]1C[C@H](O)[C@@]1(C)C(=O)[C@H](O)C3=C(C)[C@@H](OC(=O)[C@H](O)[C@@H](NC(=O)OC(C)(C)C)c4ccccc4)C[C@@](O)([C@@H](OC(=O)c4ccccc4)[C@H]21)C3(C)C [Taxotere ® (docetaxel), docetaxel]
- Average Survival Time (to 1500 mm^3 tumor volume) [1, 3]: 38.96 ± 7.07
- MST (Median Survival Time to 1500 mm^3 tumor volume) [1, 3]: 32.9 days
- Tumor volume ([1]; day 4, PEGylated rHuPH20 10,000 U/mouse and/or docetaxel 10 mg/kg IV): 687.27 mm3
- Tumor volume ([1]; day 4, docetaxel 30 mg/kg IV): 497.04 mm3
- Tumor volume ([1]; day 13, PEGylated rHuPH20 10,000 U/mouse and/or docetaxel 10 mg/kg IV): 869.25 mm3
- Tumor volume ([1]; day 13, docetaxel 30 mg/kg IV): 401.12 mm3
- Tumor volume ([1]; day 21, PEGylated rHuPH20 10,000 U/mouse and/or docetaxel 10 mg/kg IV): 1011.1 mm3
- Tumor volume ([1]; day 21, docetaxel 30 mg/kg IV): 409.02 mm3
- Tumor volume ([1]; day 27, PEGylated rHuPH20 10,000 U/mouse and/or docetaxel 10 mg/kg IV): 1260.7 mm3
- Tumor volume ([1]; day 27, docetaxel 30 mg/kg IV): 291.65 mm3
- Tumor volume ([1]; day 35, PEGylated rHuPH20 10,000 U/mouse and/or docetaxel 10 mg/kg IV): 1441.1 mm3
- Tumor volume ([1]; day 35, docetaxel 30 mg/kg IV): 213.73 mm3
- Tumor volume ([1]; day 42, PEGylated rHuPH20 10,000 U/mouse and/or docetaxel 10 mg/kg IV): 1552.1 mm3
- Tumor volume ([1]; day 42, docetaxel 30 mg/kg IV): 147.05 mm3
- Tumor volume ([1]; day 50, docetaxel 30 mg/kg IV): 130.2 mm3
- Tumor volume ([1]; day 61, docetaxel 30 mg/kg IV): 343.03 mm3
- Tumor volume ([1]; day 73, docetaxel 30 mg/kg IV): 865.5 mm3
- Tumor volume ([1]; day −1 (before treatment), PEGylated rHuPH20 10,000 U/mouse and/or docetaxel 10 mg/kg IV): 470.39 mm3
- Tumor volume ([1]; day −1 (before treatment), docetaxel 30 mg/kg IV): 471.34 mm3
- % ILS ([1]; increase in life span vs API buffer control, PEGylated rHuPH20 10,000 U/mouse and/or docetaxel 10 mg/kg): 59%
- % T/C ([1]; median survival time vs API buffer control, PEGylated rHuPH20 10,000 U/mouse and/or docetaxel 10 mg/kg): 157%
- No. of animals alive at day 49 [2, 4]: 9
- surviving animals at day 29 ([2]; Taxotere 10 mg/kg or PEGylated rHuPH20 10,000 U/mouse alone): 9 out of 12
- No. of animals alive at day 49 [2, 5]: 10
- mice remaining alive at Day 29 [2, 5]: 10 out of 11
- % survival [2, 4]: 75.00%
- % survival [2, 5]: 90.91%
